Where a name gives a salt, the structure may show the parent alone.
Tests used:
[1] = molecular target: T1, human adenosine A1 receptor (Homo sapiens, UniProt P30542); experiment: Adenosine A1 Receptor Functional Assay (A1GAL2); format: cell-based; details: CHO-K1 cells overexpressing human A1 receptor, cAMP inducible beta-galactosidase reporter, 4 nM r-PIA/1 uM Forskolin agonist challenge
T1 construct: expressed in transfected cells; host or cells: CHO-K1 cells with a cAMP inducible beta-galactosidase reporter gene
T1 sequence (P30542 1-326): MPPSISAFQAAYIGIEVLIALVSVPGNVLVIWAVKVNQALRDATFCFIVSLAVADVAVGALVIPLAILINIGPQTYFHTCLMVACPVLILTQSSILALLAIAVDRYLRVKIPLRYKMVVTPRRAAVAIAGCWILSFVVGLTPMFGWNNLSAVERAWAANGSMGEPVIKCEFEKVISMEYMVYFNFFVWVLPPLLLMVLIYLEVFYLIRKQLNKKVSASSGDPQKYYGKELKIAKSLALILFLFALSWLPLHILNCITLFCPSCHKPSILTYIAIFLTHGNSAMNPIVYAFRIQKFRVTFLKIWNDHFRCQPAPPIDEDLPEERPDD
Description: Adenosine A1 Receptor Functional Assay (A1GAL2)
(§1) To initiate the functional assay, cryopreserved CHO—K1 cells overexpressing the human adenosine A1 receptor and containing a cAMP inducible beta-galactosidase reporter gene were thawed, centrifuged, DMSO containing media removed, and then seeded with fresh culture media into clear 384-well tissue culture treated plates (BD #353961) at a concentration of 10K cells/well. Prior to assay, these plates were cultured for two days at 37° C., 5% CO2, 90% Rh. On the day of the functional assay, culture media was removed and replaced with 45 uL assay medium (Hams/F-12 Modified (Mediatech #10-080CV) supplemented w/0.1% BSA). Test compounds were diluted and 11 point curves created at a 1000× concentration in 100% DMSO. Immediately after addition of assay media to the cell plates, 50 nL of the appropriate test compound antagonist or agonist control curves were added to cell plates using a Cartesian Hummingbird. Compound curves were allowed to incubate at room temperature on cell plates for approximately 15 minutes before addition of a 4 nM r-PIA (Sigma P4532)/1 uM Forskolin (Sigma F3917) agonist challenge (5 uL volume). A control curve of r-PIA in 1 uM Forskolin, a DMSO/Media control, and a single dose of Forskolin were also included on each plate. After additions, cell plates were allowed to incubate at 37° C., 5% CO2, 90% Rh for 5.5-6 hours. After incubation, media was removed, and cell plates were washed 1× 50 uL with DPBS w/o Ca & Mg (Mediatech 21-031-CV). Into dry wells, 20 uL of 1× Reporter Lysis Buffer (Promega E3971 (diluted in dH2O from 5× stock)) was added to each well and plates frozen at −20° C. overnight. For β-galactosidase enzyme calorimetric assay, plates were thawed out at room temperature and 20 μL 2× assay buffer (Promega) was added to each well. Color was allowed to develop at 37° C., 5% CO2, 90% Rh for 1-1.5 h or until reasonable signal appeared. The calorimetric reaction was stopped with the addition of 60 μL/well 1M sodium carbonate. Plates were counted at 405 nm on a SpectraMax Microplate Reader (Molecular Devices). Data was analyzed in Microsoft Excel and IC/EC50 curves were fit using a standardized macro.

[2] = molecular target: T2, human adenosine A2a receptor (Homo sapiens, UniProt P29274); experiment: Adenosine A2a Receptor Functional Assay (A2AGAL2); format: cell-based; details: CHO-K1 cells overexpressing human A2a receptor, cAMP inducible beta-galactosidase reporter, 15 nM NECA agonist challenge
T2 construct: expressed in transfected cells; host or cells: CHO-K1 cells with a cAMP inducible beta-galactosidase reporter gene
T2 sequence (P29274 whole entry): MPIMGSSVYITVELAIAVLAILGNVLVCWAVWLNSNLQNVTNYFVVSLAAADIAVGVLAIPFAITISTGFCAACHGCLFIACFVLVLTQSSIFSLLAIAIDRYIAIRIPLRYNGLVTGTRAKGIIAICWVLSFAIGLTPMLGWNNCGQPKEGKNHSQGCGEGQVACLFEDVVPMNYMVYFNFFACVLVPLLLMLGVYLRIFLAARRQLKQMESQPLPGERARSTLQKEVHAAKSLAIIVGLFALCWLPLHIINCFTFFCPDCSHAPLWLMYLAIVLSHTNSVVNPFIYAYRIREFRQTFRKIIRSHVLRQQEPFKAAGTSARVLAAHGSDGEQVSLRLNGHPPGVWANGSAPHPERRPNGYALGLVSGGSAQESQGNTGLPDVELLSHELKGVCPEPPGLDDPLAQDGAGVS
Description: Adenosine A2a Receptor Functional Assay (A2AGAL2)
as §1, with “adenosine A2a” for “adenosine A1”, “a 15” for “a 4”, “nM NECA” for “nM r-PIA”, “(Sigma E2387)” for “(Sigma P4532)/1 uM Forskolin (Sigma F3917)”, “of NECA,” for “of r-PIA in 1 uM Forskolin,”, “Forskolin (Sigma F3917)” for “Forskolin”

Row | Ki [1] [nM] | Ki [2] [nM] | SMILES
1 | 765 | 84.4 | N#Cc1cccc(-c2nc(N)c3cc(Nc4ccccn4)sc3n2)c1 [Example 4, 3-[4-Amino-6-(pyridin-2-ylamino)-thieno[2,3-d]pyrimidin-2-yl]-benzonitrile]
2 | 358 | 15.7 | N#Cc1cccc(-c2nc(N)c3cc(S(=O)(=O)c4ccccc4)sc3n2)c1 [Example 12, 3-(4-Amino-6-benzenesulfonyl-thieno[2,3-d]pyrimidin-2-yl)-benzonitrile]
3 | 2270 | 230 | N#Cc1cccc(-c2nc(N)c3cc(Nc4ccccc4Cl)sc3n2)c1 [Example 7, 3-[4-Amino-6-(2-chloro-phenylamino)-thieno[2,3-d]pyrimidin-2-yl]-benzonitrile-hydrochloride]
4 | 569 | 103 | COc1ccccc1N(C)c1cc2c(N)nc(-c3cccc(C#N)c3)nc2s1 [Example 3, 3-{4-Amino-6-[(2-methoxy-phenyl)-methyl-amino]-thieno[2,3-d]pyrimidin-2-yl}-benzonitrile]
5 | 1150 | 89.4 | N#Cc1cccc(-c2nc(N)c3cc(Nc4ccccc4)sc3n2)c1 [Example 1, (4-Amino-6-phenylamino-thieno[2,3-d]pyrimidin-2-yl)-benzonitrile]
6 | 2540 | 273 | COc1cccc(N(C)c2cc3c(N)nc(-c4cccc(C#N)c4)nc3s2)c1 [Example 9, 3-{4-Amino-6-[(3-methoxy-phenyl)-methyl-amino]-thieno[2,3-d]pyrimidin-2-yl}-benzonitrile-hydrochloride]
7 | 2330 | 127 | CN(c1ccccc1)c1cc2c(N)nc(-c3cccc(C#N)c3)nc2s1 [Example 5, 3-[4-Amino-6-(methyl-phenyl-amino)-thieno[2,3-d]pyrimidin-2-yl]-benzonitrile]
8 | 2370 | 261 | COc1cccc(Nc2cc3c(N)nc(-c4cccc(C#N)c4)nc3s2)c1 [Example 6, 3-[4-Amino-6-(3-methoxy-phenylamino)-thieno[2,3-d]pyrimidin-2-yl]-benzonitrile-hydrochloride]
9 | 5230 | 398 | CN(c1cccc(F)c1)c1cc2c(N)nc(-c3cccc(C#N)c3)nc2s1 [Example 11, 3-{4-Amino-6-[(3-fluoro-phenyl)-methyl-amino]-thieno[2,3-d]pyrimidin-2-yl}-benzonitrile]
10 | 2600 | 131 | N#Cc1cccc(-c2nc(N)c3cc(Nc4ccccc4F)sc3n2)c1 [Example 10, 3-[4-Amino-6-(2-fluoro-phenylamino)-thieno[2,3-d]pyrimidin-2-yl]-benzonitrile]
11 | 2770 | 316 | CN(c1cc2c(N)nc(-c3cccc(C#N)c3)nc2s1)c1ccccc1Cl [Example 8, 3-{4-Amino-6-[(2-chloro-phenyl)-methyl-amino]-thieno[2,3-d]pyrimidin-2-yl}-benzonitrile]
12 | 269 | 11.4 | COc1ccccc1Nc1cc2c(N)nc(-c3cccc(C#N)c3)nc2s1 [Example 2, 3-[4-Amino-6-(2-methoxy-phenylamino)-thieno[2,3-d]pyrimidin-2-yl]-benzonitrile]
